From patent US9974761B2, “Medications for deposition on biological surfaces” (The Procter & Gamble Company, priority 2014, dated 2018) come the findings set out here.

The target in the experiment is T1, human TRPM8 (UniProt Q8R4D5).
T1 construct: Receptor Activity TRPM8; Receptor Activity TRPM8; other: test compound at 0.001%; relative to WS5 control (30 microMolar); HEK 293 cells; other: test compound at 0.004%; other: test compound at 5.2E−5%; relative to WS5 control
Kind of experiment: TRPM8 Protocol-FLIPR Assay (intracellular Ca2+). Particulars: for TRPM8 Time Course Activity 50 sec: fluorescence at 50 sec; for TRPM8 Time Course Activity 50 sec % of WS5: vs 30 uM WS-5. Format: cell-based.

Turning to `CC(C)[C@@H]1CC[C@@H](C)C[C@H]1C(=O)NCC(NC(=O)[C@@H](C)N)c1ccccc1` (single isomer, unassigned) [Compound 28 fraction 1], the “TRPM8 Time Course Activity 50 sec” value reads like this: (dose 6.1 nM) 884.0; (dose 12.2 nM) 3018.0; (dose 24.4 nM) 1936.0; (dose 48.8 nM) 2916.0; (dose 97.6 nM) 3963.0; (dose 195 nM) 5418.0. For the same compound, the “TRPM8 Time Course Activity 50 sec” value is, setting by setting: (dose 390 nM) 7592.0; (dose 781 nM) 9786.0; (dose 1.563 uM) 11114.0; (dose 3.125 uM) 11637.0; (dose 6.25 uM) 12229.0; (dose 12.5 uM) 12430.0. For the same compound, the “TRPM8 Time Course Activity 50 sec” value reads like this: (dose 25 uM) 13046.0; (dose 50 uM) 12419.0; (dose 100 uM) 12646.0. The “TRPM8 Time Course Activity 50 sec % of WS5” value (dose 390 nM) was 75.5%; the “TRPM8 Time Course Activity 50 sec % of WS5” value (dose 781 nM) was 97.3%; the “TRPM8 Time Course Activity 50 sec % of WS5” value (dose 1.563 uM) is 110.5%; the “TRPM8 Time Course Activity 50 sec % of WS5” value (dose 3.125 uM) amounted to 115.7%; the “TRPM8 Time Course Activity 50 sec % of WS5” value (dose 6.25 uM) worked out at 121.6%; the “TRPM8 Time Course Activity 50 sec % of WS5” value (dose 12.5 uM) was 123.6%. The “TRPM8 Time Course Activity 50 sec % of WS5” value reads like this: (dose 25 uM) 129.7%; (dose 50 uM) 123.5%; (dose 100 uM) 125.7%.
